Legend:
[1] = biological target: T1, 5-Lipoxygenase enzyme (10,000 g supernatant from RBL-1 cells) (Rattus norvegicus, UniProt P12527); test: RBL-1 5-Lipoxygenase Screen; type: biochemical; details: decrease in 5-HETE + 5,12-diHETE formation relative to control, read-out: Per cent inhibition of 5-lipoxygenase at × μM concentration; for inhibition at 20 µM: at 20 μM compound
T1 construct: prepared as a 10,000 g supernatant from RBL-1 cells; endogenous in cells; host or cells: RBL-1 cells (10,000 g supernatant)
T1 sequence (P12527 1-673): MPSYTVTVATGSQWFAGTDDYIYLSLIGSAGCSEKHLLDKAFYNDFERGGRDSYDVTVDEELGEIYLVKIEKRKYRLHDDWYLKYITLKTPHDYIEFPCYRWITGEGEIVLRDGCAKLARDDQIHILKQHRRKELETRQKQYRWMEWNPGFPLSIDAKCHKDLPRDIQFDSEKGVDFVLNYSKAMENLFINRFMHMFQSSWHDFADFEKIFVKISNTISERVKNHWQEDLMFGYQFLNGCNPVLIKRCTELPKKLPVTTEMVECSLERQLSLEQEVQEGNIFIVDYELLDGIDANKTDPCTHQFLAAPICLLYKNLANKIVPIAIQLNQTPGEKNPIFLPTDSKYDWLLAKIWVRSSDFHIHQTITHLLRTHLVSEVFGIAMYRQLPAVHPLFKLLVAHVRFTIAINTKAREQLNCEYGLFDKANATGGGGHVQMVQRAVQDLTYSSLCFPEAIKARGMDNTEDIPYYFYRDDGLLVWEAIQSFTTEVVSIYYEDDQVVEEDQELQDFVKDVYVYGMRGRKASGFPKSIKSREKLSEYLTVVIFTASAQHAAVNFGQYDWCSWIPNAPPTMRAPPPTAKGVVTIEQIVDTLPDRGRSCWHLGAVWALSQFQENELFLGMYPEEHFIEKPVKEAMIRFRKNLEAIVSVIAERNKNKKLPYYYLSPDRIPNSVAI
Protocol: (1) RBL-1 5-Lipoxygenase Screen
5-Lipoxygenase enzyme was prepared as a 10,000 g supernatant from RBL-1 cells by the method of Jakschik (Jakschik, B. A., F. F. Sun, L. M. Lee, and M. M. Steinhoff, 1980, Biochem. Biophys. Res. Comm. 95, 103). The 10,000 g supernatant was diluted with homogenization buffer to the equivalent of 1.5-2.5×10^7 cells. ml.^-1 and made 2 mM with respect to CaCl2. Aliquots of 0.5 ml were then dispensed into tubes, and incubated at 29° C. with 5 ul ethanol or compound in ethanol at the desired concentration for 2 min. Then [1-^14 C] arachidonic acid was added in buffer to give a final concentration of 6.3 uM and 0.2 uCi per incubation, and the reaction continued at 29° C. for 2 min. The reaction was terminated by adding 1 ml of acetone and cooling on ice, 0.5 ml of ice-cold saline and 100 ul of 2N formic acid were added, and the mixture was extracted with 2×2 ml of chloroform. The extract was stored under N2 at -20° C. until analysis by chromatography. Activity was measured as the percentage of total radioactivity found in 5-HETE and 5,12-diHETE, and inhibition calculated as the decrease in formation of the sum of these two species in compound-treated incubates relative to control incubations.

[2] = tested on: cyclo-oxygenase (bovine seminal vesicle microsomes); test: Cyclo-oxygenase Screen; type: biochemical; details: at 50 μM compound; decrease in prostaglandin formation
Protocol: (2) Cyclo-oxygenase Screen
Compounds were preincubated with the incubation constitutents for 5 min at 37° C. before the reaction was started by the addition of the arachidonic acid. The reaction was continued at 37° C. for 2 min, then stopped by placing the incubations on ice and the addition of 1.2 ml 0.2M citric acid. Unmetabolised substrate and prostaglandin products were extracted in ethyl acetate (2×4 ml), the combined extracts washed with 0.8 ml water, and separated by thin-layer chromatography (Kieselgel GF254 plates in ethyl acetate:acetone:glacial acetic acid, 90:10:1, v/v). Recovery was 65-80%. The regions on the thin-layer chromatography plate that chromatographed with authentic arachidonic acid or prostaglandins E2 and F2 α (Rf 's 0.70, 0.28 and 0.16 respectively) were scraped and the radioactivity in each determined by liquid scintillation counting with a correction for quenching being made by the external standard-channels ratio method. Inhibition of cyclo-oxygenase activity was calculated from the decrease in prostaglandin formation. Each compound concentration was tested in triplicate and the 50% inhibitory concentration, if determined, was calculated by linear regression from the inhibitory data at, at least three different compound concentrations.

| inhibition at 5 µM ([1]; at 5 μM compound) [%] | Per cent inhibition of cyclo-oxygenase at 50 μM concentration [2] [%] | inhibition at 20 µM [1] [%] | Structure (SMILES) |
| --- | --- | --- | --- |
| 38 | 46 | – | CCCCCCCCCCCC#Cc1ccoc1/C=C/C(=O)O [Example 7, 3-[3-(1-Tridecynyl)-2-furanyl]prop-2-enoic acid] |
| – | 15 | 72 | CCCCCCCCCCCC#Cc1cnccc1C=C(C(=O)O)C(=O)O [Example 4, 2-[3-(1-Tridecynyl)-4-pyridyl]methylenepropane-1,3-dioic acid] |
| – | – | 30 | CCCCCCCCCCCC#Cc1cnccc1/C=C/C(=O)O [Example 2, 3-[3-(1-Tridecynyl)-4-pyridyl)prop-2-enoic acid] |

— patent US4732901A, “Certain pyridyl, thienyl or furyl propenoic acids or esters having anti-inflammatory anti-allergic properties” (Beecham Group p.l.c., priority 1985, dated 1988)
